The source of these data is the supplement of paper PMC10307832.

Holding throughout (test): relative viability (nuclei count vs DMSO), 5 days (fraction); higher = more cells survive
Compound in the test “QS11 + Navitoclax”: C1CC2=C(C1)C=C(C=C2)OC3=NC(=C4C(=N3)N(C=N4)CC5=CC=C(C=C5)C6=CC=CC=C6)N[C@@H](CC7=CC=CC=C7)CO [QS11] + CC1(C)CCC(c2ccc(Cl)cc2)=C(CN2CCN(c3ccc(C(=O)NS(=O)(=O)c4ccc(N[C@H](CCN5CCOCC5)CSc5ccccc5)c(S(=O)(=O)C(F)(F)F)c4)cc3)CC2)C1 [Navitoclax] (partner 0.5 µM)
The gist of the method:
(§1)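 Values are medians from duplicate plates. Each reflects relative viability, defined as the nuclei count of treated wells over that of vehicle wells. Lung cancer cell lines in 1536-well plates were pin-tool dosed one day after seeding with one drug alone or with a fixed anchor-drug dose plus five library-drug doses (not always all listed) in √10 steps, then fixed, stained and imaged at 4× after 5 days.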

Compound in the test “AZ628 + Tozasertib”: CC1=C(C=C(C=C1)NC(=O)C2=CC(=CC=C2)C(C)(C)C#N)NC3=CC4=C(C=C3)N=CN(C4=O)C [AZ628] + Cc1cc(Nc2cc(N3CCN(C)CC3)nc(Sc3ccc(NC(=O)C4CC4)cc3)n2)n[nH]1 [Tozasertib] (partner 0.1 µM)
The gist of the method: as §1

Compound in the test “AZ628 + Phenformin”: CC1=C(C=C(C=C1)NC(=O)C2=CC(=CC=C2)C(C)(C)C#N)NC3=CC4=C(C=C3)N=CN(C4=O)C [AZ628] + N=C(N)NC(=N)NCCc1ccccc1 [Phenformin] (partner 250 µM)
The gist of the method:
as §1

Compound in the test “Darinaparsin + Olaparib”: C[As](C)SC[C@H](NC(=O)CC[C@H](N)C(=O)O)C(=O)NCC(=O)O [Darinaparsin] + O=C(c1cc(Cc2n[nH]c(=O)c3ccccc23)ccc1F)N1CCN(C(=O)C2CC2)CC1 [Olaparib] (partner 8 µM)
The gist of the method: as §1

Turning to LCLC-97TM1, the relative viability in the test with QS11 + Navitoclax (first compound 0.08 µM) amounted to 0.414; in the test with QS11 + Navitoclax (first compound 0.253 µM), 0.328; with QS11 + Navitoclax (first compound 0.8 µM) it was 0.387; with QS11 + Navitoclax (first compound 2.53 µM), 0.503; in the test with QS11 + Navitoclax (first compound 8 µM) it was 0.432; in the test with AZ628 + Tozasertib (first compound 0.08 µM), 0.239. Moreover, the relative viability with AZ628 + Tozasertib (first compound 0.253 µM) was 0.202; with AZ628 + Tozasertib (first compound 0.8 µM), 0.235; in the test with AZ628 + Tozasertib (first compound 2.53 µM), 0.211; with AZ628 + Tozasertib (first compound 8 µM), 0.167; with AZ628 + Phenformin (first compound 0.08 µM), 0.55; with AZ628 + Phenformin (first compound 0.253 µM), 0.459. Also, the relative viability in the test with AZ628 + Phenformin (first compound 0.8 µM) worked out at 0.421; with AZ628 + Phenformin (first compound 2.53 µM), 0.457; in the test with AZ628 + Phenformin (first compound 8 µM) it was 0.308; with Darinaparsin + Olaparib (first compound 0.08 µM), 0.599; with Darinaparsin + Olaparib (first compound 0.8 µM), 0.303; with Darinaparsin + Olaparib (first compound 2.53 µM), 0.404. For the same cell line, the relative viability with Darinaparsin + Olaparib (first compound 8 µM) came to 0.612.
